Here are results for one compound from PMC5724825, “Structure-activity studies of Mdm2/Mdm4-binding stapled peptides comprising non-natural amino acids” (PLoS ONE, 2017).

The target in experiment [1] is T1, Mdm4-L98V (amino acids 1–108) (Homo sapiens, UniProt O15151, L98V).
T1 construct: Mdm4 and Mdm4-L98V (amino acids 1–108) were cloned with C-terminal 6xHIS tags; made in house; host or cells: Escherichia coli BL21(DE3)
T1 sequence (O15151 1-108 L98V): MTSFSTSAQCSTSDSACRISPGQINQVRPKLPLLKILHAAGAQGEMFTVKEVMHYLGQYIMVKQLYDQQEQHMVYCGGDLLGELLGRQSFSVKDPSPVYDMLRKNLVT
The experiment in a line: Competitive fluorescence anisotropy, Mdm4-L98V. The class given is binding. The following applies: from Table 2. The method, then:
(§1) Mdm4 and Mdm4-L98V (amino acids 1–108) were cloned with C-terminal 6xHIS tags. The constructs were then transformed into Escherichia coli BL21(DE3) (Invitrogen) competent cells. Cells were grown in LB medium at 37°C and induced at OD600 nm of 0.6 at 25°C with 0.25 mM IPTG and at 16°C with 1 mM IPTG for Mdm4-WT and Mdm4-L98V respectively. After overnight induction, the cells were harvested by centrifugation, resuspended in His-binding buffer (50 mM Bis-Tris pH 6.5, 1M NaCl, 20 mM imidazole, 0.5 mM DTT), and lysed by sonication. After centrifugation for 60 mins at 19,000 × g at 4°C, the cell lysate was then applied to a 1 mL HisTrap FF column (GE Healthcare) pre-equilibrated in His-binding buffer, washed and eluted off the column with His-elution buffer (50 mM Bis-Tris pH 6.5, 1M NaCl, 500 mM imidazole, 0.5 mM DTT) with a gradient elution of 35% elution buffer in 5 column volumes, followed by 35% to 100% elution buffer over 80 column volumes. Protein purity as assessed by SDS-PAGE was ~ 90%, and the fractions were pooled and buffer exchanged into 50 mM Bis-Tris pH 6.5, 350 mM NaCl, 1 mM DTT. The proteins were then concentrated using Amicon-Ultra (3 kDa MWCO) concentrator (Millipore).
(§2) Fluorescence anisotropy assays were performed as previously described. Titrations of purified Mdm2/Mdm4 proteins were incubated with 50 nM of carboxyfluorescein (FAM) labelled 12–1 peptide (FAM-[…]-NH2) to initially determine the dissociation constants for the peptide-protein interactions. Apparent Kds of peptides were next determined by competitive fluorescence anisotropy. Titrations of peptides were carried out at constant concentrations of Mdm2/Mdm2-M62A/Mdm4 (150 nM), Mdm4-L98V (250 nM) and labelled peptide (50 nM). Anisotropy measurements were carried out using the Envision Multilabel Reader (PerkinElmer). All experiments were carried out in PBS (2.7 mM KCl, 137 mM NaCl, 10 mM Na2HPO4 and 2 mM KH2PO4, pH 7.4), 4% DMSO and 0.1% Tween-20 buffer. All titrations were carried out in duplicate (3–6 repeats). Curve fitting was carried out using Prism (GraphPad).

Experiment [2] has as its target T2, Mdm4 (amino acids 1–108) (Homo sapiens, UniProt O15151).
T2 construct: Mdm4 and Mdm4-L98V (amino acids 1–108) were cloned with C-terminal 6xHIS tags; made in house; host or cells: Escherichia coli BL21(DE3)
T2 sequence (O15151 1-108): T1 sequence (O15151 1-108 L98V) with V98L
The experiment in a line: Competitive fluorescence anisotropy, Mdm4. The class given is binding. The following applies: from Table 2. As to the method:
as §1, §2
(Fluorescence polarisation rises when a labelled molecule tumbles more slowly, as on binding a larger partner.)

The subject of experiment [3] is activation of the p53 tumour suppressor. The following applies: earlier series; cited from earlier work. The source says: We have previously described a series of peptide antagonists targeting Mdm2, a key regulator of p53 function. In common with all reported high-affinity binders, these peptides incorporate a signature p53-derived interacting motif comprising F, W and L residues that respectively dock into discrete hydrophobic pockets in the N-terminal domain of Mdm2 [13]. This series exemplified significant enhancements in binding affinity, cellular uptake and activity arising from incorporation of a hydrocarbon tether and replacement of the tryptophan with the non-natural L-6-chlorotryptophan. The ...

Experiment [4] concerns the target T3, Mdm2 (amino acids 6–125) (Homo sapiens, UniProt Q00987). The experiment in a line: Competitive fluorescence anisotropy, Mdm2. In kind it is binding. More on the design: Mdm2 (amino acids 6–125) was cloned as a GST-fusion protein; GST (N, cleaved yes); made in house; host or cells: Escherichia coli BL21(DE3) pLysS. Particulars: from Table 2.
Experiment [5] has as its target T3, Mdm2 (amino acids 6–125). More on the design: Mdm2 (amino acids 6–125) was cloned as a GST-fusion protein; GST (N, cleaved yes); made in house; host or cells: Escherichia coli BL21(DE3) pLysS. Particulars: earlier series; cited from earlier work. An excerpt: In common with all reported high-affinity binders, these peptides incorporate a signature p53-derived interacting motif comprising F, W and L residues that respectively dock into discrete hydrophobic pockets in the N-terminal domain of Mdm2 [13]. […] The ...

Experiment [6] relates to p53 transactivation in T22 cells. The experiment in a line: p53 reporter assay in T22 cells (β galactosidase). The following applies: 5, 10, 20 μM peptide, 18 hours, DMEM with 10% FBS. In kind it is cell-based. As to the method:
Dulbecco’s Minimal Eagle Medium (DMEM) with 10% fetal bovine serum (FBS) and penicillin/streptomycin was used to maintain cells. T22 cells stably transfected with a p53 responsive β galactosidase reporter, were seeded into 96-well plates (8000 cells per well). 24 hours later, cells were treated with compounds/peptide for 18 hours in DMEM with 10% FBS. β galactosidase activity was measured using the FluoReporter LacZ/Galactosidase Quantitation kit (Invitrogen). Measurements were carried out on a Safire II multiplate reader (TECAN). All experiments were carried out in duplicate.
Fig 4 T22 reporter assay measuring p53 transactivation. A. Cells were treated with increasing concentrations (5, 10, 20 μM) of indicated peptide ligands and p53 activity determined by measuring β galactosidase levels. The small molecule Mdm2 inhibitor Nutlin (10 μM) was used as positive control. Activity is expressed as fold increase over cells treated with DMSO vehicle only. Values represent average ± SD (n = 2). * p < 0.001 compared to DMSO control. B. Lactate dehydrogenase release assay indicating no significant membrane disruption observed for increasing concentrations (2, 10, 20 μM) of indicated ligands compared to vehicle (DMSO) and positive maximum lysis control (MLC). Values represent average ± SD (n = 3).
Background: In a reporter assay the amount or activity of a reporter protein is the signal.

Numbering of substitutions follows the chain as printed.

`CC(=O)N[C@H](C(=O)N[C@@H](CO)C(=O)N[C@@H](Cc1ccccc1)C(=O)N[C@]1(C)CCCCCCC=CCCC[C@@](C)(C(N)=O)NC(=O)[C@H](CC(C)C)NC(=O)[C@H](CC(C)C)NC(=O)[C@H](C)NC(=O)[C@H](Cc2c[nH]c3cc(Cl)ccc23)NC(=O)[C@H](Cc2ccc(O)cc2)NC(=O)[C@H](CCC(=O)O)NC1=O)[C@@H](C)O` [M011]: the “Increase in binding affinity to Mdm4-L98V over binding to Mdm4” value in experiment [1] is ~ 4.6 fold. Further, in experiment [2], the “Binding to Mdm2 over Mdm4 (affinity for Mdm4 reduced compared to Mdm2)” value was ~ 50 fold and the “Reduced binding to Mdm4 compared to PM2” value was ~ 3 fold. The “Enhanced cellular activity over the parental peptide” value in experiment [3] is listed as ~ 59 fold. In addition, the “Increased Mdm2 binding affinity over parental stapled peptide lacking the 6-chloro modification (PM2)” value in experiment [4] is ~ 8 fold. The “Increase in Mdm2 binding affinity over the parental peptide” value in experiment [5] is recorded as ~ 7 fold. In addition, in experiment [6], the “More active than M012 in T22 p53 reporter assay” value is ~ 20%.
